Results taken from paper PMC5424641 (Biomolecules & Therapeutics, 2017).
Structures can show the parent of a compound that is named as a salt. Where two headings read alike, the source gives them in different places.

Columns and labels:
[1] = biological target: T1, urotensin II receptor (hUT) (Homo sapiens, UniProt Q9UKP6); assay: radioligand binding assay
T1 sequence (Q9UKP6 1-389): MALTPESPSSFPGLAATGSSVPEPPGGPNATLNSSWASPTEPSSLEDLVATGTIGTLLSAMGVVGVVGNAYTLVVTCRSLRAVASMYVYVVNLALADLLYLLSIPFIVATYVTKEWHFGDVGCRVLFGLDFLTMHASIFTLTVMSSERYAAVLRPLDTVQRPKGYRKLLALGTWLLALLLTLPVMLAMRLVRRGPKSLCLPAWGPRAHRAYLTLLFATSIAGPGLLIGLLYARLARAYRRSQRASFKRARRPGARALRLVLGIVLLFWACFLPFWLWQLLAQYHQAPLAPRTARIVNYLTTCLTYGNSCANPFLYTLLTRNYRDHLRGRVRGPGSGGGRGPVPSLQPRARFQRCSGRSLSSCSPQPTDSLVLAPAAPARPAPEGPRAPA

[2] = biological target: T1, urotensin II receptor (hUT); assay: radioligand binding assay; remark: listed apart in the source

Row | Ki [1] [nM] | Ki [2] [nM] | SMILES
1 | 31 |  | CN(C(=O)CN1C(=O)COc2cc(Cl)c(Cl)cc21)[C@@H](CN1CCOCC1)c1ccc(-c2ccc(C(=O)O)cc2)cc1 [GSK-1440115, 4′-[(1R)-1-[[(6,7-dichloro-3-oxo-2,3-dihydro-4H-1,4-benzoxazin-4-yl)acetyl](methyl)amino]-2-(4-morpholinyl)ethyl]-4-biphenylcarboxylic acid trifluoroacetate]
2 |  | 4 | O=C(NC1CCN(Cc2ccc(OC3CCNCC3)c(Br)c2)CC1)c1csc2ccccc12 [KR-36996, N-(1-(3-bromo-4-(piperidin-4-yloxy)benzyl)piperidin-4-yl)benzo[b]thiophene-3-carboxamide]
